Results on seven molecules are retold here after PubChem BioAssay (NCI).

Test systems include MDA-MB-435; UO-31 renal; SF-295 CNS; NCI/ADR-RES ovarian; OVCAR-5 ovarian; MOLT-4 leukemia; EKVX NSCLC; MCF7 breast; HT29 colon; SNB-19 CNS; PC-3 prostate; SN12C renal; U251 CNS; NCI-H522 lung; SW-620 colon; HOP-92 NSCLC; MDA-MB-231 breast; HCT-116 colon.
Holding throughout (test): NCI-60 cell line screen, 48 h

SMILES strings stand for the structures.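 Cultured in 96-well plates, cells were exposed to test compound for 48 hours across five concentrations. TGI denotes the concentration required for complete inhibition of growth.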 Where a SMILES comes first, the peptide text is derived from it. [ ]: non-standard residue; d: D form. ΔPro = O=C(O)[CH]1C=CCN1

Regarding `O=C1C=C(c2ccccc2)OC1C1Sc2ccccc2NC1=O` (stereo unspecified), the TGI in the assay on MDA-MB-435 was more than 100 µM; in the assay with UO-31 renal it was 76.1 µM; in the assay on SF-295 CNS, 27 µM; with NCI/ADR-RES ovarian, more than 80.9 µM; in the assay with OVCAR-5 ovarian, more than 100 µM; in the assay on MOLT-4 leukemia, more than 40.1 µM. Moreover, the TGI with EKVX NSCLC was more than 100 µM; in the assay with MCF7 breast, more than 23.6 µM; with HT29 colon it was more than 100 µM; with SNB-19 CNS, more than 82.8 µM; in the assay on PC-3 prostate, more than 54.9 µM; in the assay on SN12C renal, 68.8 µM. Besides, the TGI is more than 43.3 µM with U251 CNS; 33.8 µM in the assay with NCI-H522 lung; more than 100 µM in the assay on SW-620 colon; more than 87 µM in the assay on HOP-92 NSCLC; more than 57.1 µM in the assay on MDA-MB-231 breast; 24.6 µM in the assay with HCT-116 colon.
With `COc1ccccc1-n1nnc2c(N)nc(N)nc21`, the TGI in the assay with MDA-MB-435, in the assay on UO-31 renal, in the assay on SF-295 CNS, in the assay on NCI/ADR-RES ovarian, in the assay with OVCAR-5 ovarian and in the assay with MOLT-4 leukemia was more than 100 µM each time. The TGI in the assay with EKVX NSCLC, with MCF7 breast, with HT29 colon, with SNB-19 CNS, in the assay with PC-3 prostate and in the assay with SN12C renal was more than 100 µM each time. Also, the TGI in the assay on U251 CNS, in the assay on NCI-H522 lung, in the assay with SW-620 colon, with HOP-92 NSCLC, in the assay on MDA-MB-231 breast and in the assay with HCT-116 colon was more than 100 µM in each case.
On to `O=C(O)C1C=CCN1C(=O)C1C=CCN1C(=O)C1C=CCN1` (stereo unspecified) (H-[ΔPro]-[ΔPro]-[ΔPro]-OH; configuration not given here), for which the TGI in the assay with MDA-MB-435, in the assay on UO-31 renal, with SF-295 CNS, in the assay with NCI/ADR-RES ovarian, with OVCAR-5 ovarian and with MOLT-4 leukemia was more than 100 µM each time. In addition, the TGI with EKVX NSCLC, in the assay on MCF7 breast, in the assay on HT29 colon, in the assay on SNB-19 CNS, with PC-3 prostate and in the assay on SN12C renal was more than 100 µM in each case. The TGI in the assay with U251 CNS, with NCI-H522 lung, with SW-620 colon, in the assay on HOP-92 NSCLC, with MDA-MB-231 breast and in the assay on HCT-116 colon was more than 100 µM in each case.
In the case of `CCN(CC)C1Oc2cc3c(cc2C(c2cc(OC)c(O)c(OC)c2)C1C)OCO3` (stereo unspecified), the TGI with MDA-MB-435 was 6.05 µM; in the assay with UO-31 renal it was more than 100 µM; with SF-295 CNS it was 24.1 µM; with NCI/ADR-RES ovarian, 37.4 µM; in the assay with OVCAR-5 ovarian, 21.7 µM; with MOLT-4 leukemia, 27.2 µM. In addition, the TGI was more than 75.6 µM in the assay with EKVX NSCLC; 27.3 µM in the assay with MCF7 breast; 22.2 µM with HT29 colon; 44.2 µM with SNB-19 CNS; more than 75.1 µM in the assay with PC-3 prostate; 36.7 µM in the assay with SN12C renal. Besides, the TGI was determined as 26.6 µM in the assay with U251 CNS; 11 µM in the assay on NCI-H522 lung; 20.9 µM in the assay with SW-620 colon; 77.9 µM in the assay on HOP-92 NSCLC; 73.7 µM in the assay with MDA-MB-231 breast; 18.2 µM with HCT-116 colon.
On to `[N-]=[N+]=NC1C(O)C(CO)OC1n1ccc(N)nc1=O` (stereo unspecified), for which the TGI with MDA-MB-435 is more than 625 µM; in the assay with UO-31 renal, 616 µM; in the assay on SF-295 CNS, more than 625 µM; with NCI/ADR-RES ovarian, more than 625 µM; in the assay on OVCAR-5 ovarian, more than 625 µM; in the assay with MOLT-4 leukemia it was more than 174 µM. In addition, the TGI in the assay on EKVX NSCLC was more than 625 µM; in the assay with MCF7 breast it was more than 625 µM; with HT29 colon, more than 625 µM; in the assay with SNB-19 CNS, more than 625 µM; in the assay with PC-3 prostate, more than 625 µM; in the assay on SN12C renal, 615 µM. For the same molecule, the TGI with U251 CNS is more than 625 µM; with NCI-H522 lung it was more than 625 µM; in the assay with SW-620 colon, more than 625 µM; with HOP-92 NSCLC, more than 625 µM; in the assay with MDA-MB-231 breast it was more than 564 µM; in the assay on HCT-116 colon, more than 625 µM.
Turning to `COc1ccc(Cc2cc(Cc3ccc(OC)cc3)cc(Cc3ccc(OC)cc3)c2)cc1`, the TGI in the assay on MDA-MB-435, with UO-31 renal, in the assay on SF-295 CNS, in the assay on NCI/ADR-RES ovarian, in the assay with OVCAR-5 ovarian and in the assay with MOLT-4 leukemia was more than 100 µM in each case. Also, the TGI with EKVX NSCLC, in the assay on MCF7 breast, in the assay on HT29 colon, in the assay on SNB-19 CNS, in the assay on PC-3 prostate and with SN12C renal was more than 100 µM in each case. Besides, the TGI with U251 CNS, with NCI-H522 lung, in the assay with SW-620 colon, in the assay on HOP-92 NSCLC, in the assay on MDA-MB-231 breast and with HCT-116 colon was more than 100 µM each time.
Regarding `COC(=O)/C=C/CCC#Cc1ccccc1C#CCC/C=C/C(=O)OC`, the TGI in the assay on MDA-MB-435 is more than 100 µM; with UO-31 renal, more than 100 µM; in the assay with SF-295 CNS, more than 100 µM; with NCI/ADR-RES ovarian, 66.2 µM; in the assay on OVCAR-5 ovarian, more than 100 µM; with MOLT-4 leukemia, 10.5 µM. Also, the TGI was more than 100 µM with EKVX NSCLC; more than 100 µM with MCF7 breast; 40.4 µM with HT29 colon; more than 100 µM with SNB-19 CNS; more than 100 µM with PC-3 prostate; 55.7 µM in the assay with SN12C renal. Also, the TGI was more than 100 µM in the assay with U251 CNS; 18.6 µM in the assay on NCI-H522 lung; more than 100 µM in the assay with SW-620 colon; 85.4 µM with HOP-92 NSCLC; more than 100 µM with MDA-MB-231 breast; more than 100 µM in the assay with HCT-116 colon.
